# Measurements reported in patent publication US12103916B2, “Antifungal compounds” (University of Kentucky Research Foundation, priority 2016, dated 2024).
# Where two headings read alike, the source gives them in different places. Marks after values point to notes of the source that are not given here.
# Assays:
# [1] = system: Candida parapsilosis ATCC 22019; details: Table 1; strain J; control azoles; previously reported (refs 5, 16); cited from earlier work
# [2] = system: C. albicans ATCC 64124; test: MIC determination, strain B; assay type: cell-based, Candida albicans; details: Candida albicans, ATCC64124
# Procedure: (§1) The antifungal activity of our new azole compounds 1-9 and 24-41 was first evaluated against a panel of seven Candida albicans strains (A-G), three non-albicans Candida strains […], and three Aspergillus strains (K-M) in a concentration range of 0.03-31.2 μg/mL (Table 1). […] For all of our azole derivatives we report their MIC-0 values against C. albicans ATCC 10231 (strain A) and all Aspergillus strains (K-M), which correspond to complete growth inhibition of these fungi. […] The commercially available antifungals AmB, FLC, ITC, POS, and VOR were used as reference drugs for comparison. The MIC values presented for these five control drugs were either tested herein or correspond to our previously published data^5, 16 as indicated in Table 1.
# (§2) Antifungal activity in the absence or presence of serum. The antifungal activity of the newly prepared alkylated piperazine/morpholine-azole hybrids 16-28, of intermediate 14 that we used to verify that only final compounds exert antifungal activity, as well as that of alkylated piperazine/morpholine derivatives 1-10 were first evaluated against a panel of seven C. albicans (ATCC 10231 (A), ATCC 64124(R) (B), ATCC MYA-2876(S) (C), ATCC 90819(R) (D), ATCC MYA-2310(S) (E), ATCC MYA-1237(R) (F), and ATCC MYA-1003(R) (G)), three non-albicans Candida (C. glabrata ATCC 2001 (H), C. krusei ATCC 6258 (I), and C. parapsilosis ATCC 22019 (J)), and three Aspergillus (A. flavus ATCC MYA-3631 (K), A. nidulans ATCC 38163 (L), and A. terreus ATCC MYA-3633 (M)) strains using a concentration range of 0.03-31.3 μg/mL (Table 2).
# (§3) Commercially available antifungal agents such as AmB, CAS, FLC, and VOR were used as positive controls for comparison. […] It is important to note that all comparisons to follow will be done by using the MIC values reported in μg/mL as the data were collected that way. However, we also present in parentheses in Table 2 the corresponding values in micromolar.
# (§4) We used the commercially available antifungal agents such as AmB, caspofungin (CAS), FLC, and VOR as positive controls for comparison. For derivatives 5-16 as well as the reference drugs AmB and CAS, we reported MIC-0 values, which correspond to no visible growth. […] In this manuscript, we performed all activity comparisons by using the MIC values reported in μg/mL (Note: the corresponding MIC values are also provided in μM into parentheses in Tables 1, 2, S1, and S2).
# [3] = system: ergosterol biosynthetic pathway (sterol 14α-demethylase) in C. albicans ATCC 10231 (strain A); test: Sterol composition by GC-MS, strain A; assay type: cell-based, Candida albicans
# From the text: FIG. 7A-FIG. 7H includes FIG. 7A. A simplified ergosterol biosynthetic pathway and products resulting from inhibition of ERG11. FIG. 7B-G. include GC-MS chromatograms of the sterols extracted from untreated and antifungals treated C. albicans strains. […] The peaks are for lanosterol (1), ergosterol (2), eburicol (3), 14-alpha-methyl ergosta 8,24(28)-dien-3-beta,6-alpha-diol (4), and unknown sterols (5 and 6). FIG. 7H is a table summarizing the percentage of each sterol from panels B-G.
# FIG. 13A. A simplified ergosterol biosynthetic pathway and products resulting from inhibition of ERG11. FIG. 13B-FIG. 13F. GC-MS chromatograms of the sterols extracted from untreated and antifungal-treated C. albicans ATCC 10231 (strain A). […] The peaks in these chromatograms are for lanosterol (1), ergosterol (2), eburicol (3), 14α-methyl ergosta-8,24(28)-dien-3β,6α-diol (4), and three unknown sterols (5-7). FIG. 13G includes a table summarizing the percentage of each sterol from panels B-F.
# No drug controls were also performed (FIGS. 7D and G).
# Determination of sterol composition in c. albicans in the presence and absence of drugs. […] By using gas chromatography-mass spectrometry (GC-MS), we investigated the potential of the synthetic compounds to exert their antifungal activity by inhibiting the sterol 14α-demethylase enzyme of the ergosterol biosynthetic pathway (FIG. 13). […] A no drug control was also performed (FIG. 13A).
# Since out of our compounds displaying antifungal activity only compound 8 caused membrane disruption of C. albicans ATCC 10231 (strain A) in the membrane permeabilization assay (section 2.6), we decided to explore by using gas chromatography-mass spectrometry (GC-MS) the effect of compounds 8 and 9 on sterol composition during ergosterol biosynthesis (the mechanism of action of other conventional azoles). […] We also used VOR at 0.12 μg/mL and no drug control for comparison.
# [4] = system: C. albicans ATCC MYA-2310(S); test: MIC determination, strain E; assay type: cell-based, Candida albicans; details: Candida albicans
# Procedure: as §1, §2, §3, §4
# [5] = system: C. albicans ATCC MYA-2876(S); test: MIC determination, strain C; assay type: cell-based, Candida albicans; details: Candida albicans
# Procedure: as §1, §2, §3, §4
# [6] = system: C. albicans ATCC MYA-1003(R); test: MIC determination, strain G; assay type: cell-based, Candida albicans; details: Candida albicans
# From the text: For all of our azole derivatives we report their MIC-0 values against C. albicans ATCC 10231 (strain A) and all Aspergillus strains (K-M), which correspond to complete growth inhibition of these fungi. […] The MIC values presented for these five control drugs were either tested herein or correspond to our previously published data^5, 16 as indicated in Table 1.
# Antifungal activity in the absence or presence of serum.
# It is important to note that all comparisons to follow will be done by using the MIC values reported in μg/mL as the data were collected that way. However, we also present in parentheses in Table 2 the corresponding values in micromolar.
# In this manuscript, we performed all activity comparisons by using the MIC values reported in μg/mL (Note: the corresponding MIC values are also provided in μM into parentheses in Tables 1, 2, S1, and S2).
# [7] = system: C. albicans ATCC MYA-2310(S); details: Table 1; strain E; control azoles; previously reported (refs 5, 16); cited from earlier work
# [8] = read-out: MIC (MIC-2), in parentheses
# [9] = Ex.2 series, VOR 0.12, 20 0.48, 26 0.975 μg/mL
# [10] = Ex.3 series, VOR 0.12, 8 and 9 at sub-MIC […] and 0.975 μg/mL
structure (smiles),measurement,setting,value
"C[C@@H](c1ncncc1F)[C@](O)(Cn1cncn1)c1ccc(F)cc1F [VOR, voriconazole]",MIC (MIC-2),[1],<0.03^c μg/mL
same,MIC,[2]; read-out: MIC (MIC-2),3.9 µg/mL
same,MIC,[2]; [8],11.2 µM
same,"ergosterol (2), percentage of sterols","[3]; Ex.2 series, FLC 1.95, VOR 0.12, 20 0.48, 26 0.975 μg/mL",64.93%
same,"eburicol (3), percentage of sterols",[3]; [9],2.14%
same,"lanosterol (1), percentage of sterols",[3]; [9],18.49%
same,"eburicol (3), percentage of sterols",[3]; [10],1.73%
same,"ergosterol (2), percentage of sterols",[3]; [10],50.80%
same,"lanosterol (1), percentage of sterols",[3]; [10],15.21%
same,MIC,[4]; read-out: MIC (MIC-2),0.975 µg/mL
same,MIC,[4]; [8],2.8 µM
same,MIC,[5]; read-out: MIC (MIC-2),1.95 µg/mL
same,MIC,[5]; [8],5.6 µM
same,MIC,[6]; read-out: MIC (MIC-2),1.95 µg/mL
same,MIC,[6]; [8],5.6 µM
same,MIC (MIC-2),[7],0.975^c μg/mL
